Results taken from patent publication US20230348506A1, “MACROCYCLIC PANTETHEINE DERIVATIVES AND USES THEREOF” (VectivBio Comet AG, priority 2019, published 2023).

What was measured:
Type in all cases: cell-based, human
[1] = tested on: primary adherent fibroblast cell line derived from an Methylmalonic Acidemia (MMA) patient (GM01673, Coriell Institute for Medical Research); assay: Mitochondrial respiration (Seahorse XFe96, OCR), Spare Capacity AUC; conditions: 10 μM compound; medium with 10 mM glucose, 2 mM glutamine, 1 mM pyruvate; 1 μM FCCP for 20 cycles; relative to vehicle
Procedure: The effect of the compounds of the present disclosure on mitochondrial respiration was measured with a XFe96 Extracellular Flux Analyzer (Seahorse Bioscience, Agilent Technologies) and Oxygen consumption Rate (OCR) and Extracellular acidification rate (ECAR) determined.
Cell culture and treatments. Primary adherent fibroblasts were cultured in minimum essential medium (MEM) (Gibco, 25030081) supplemented with 2 mM L-Glutamine (Gibco, 25030081), 15% fetal bovine serum (FBS) (Gibco, 26400044) and 1% penicillin/streptomycin (Gibco, 5140122) at 37° C. and 5% CO2. Cells were collected for either passaging or experiment at ˜70-80% confluence. Cells were obtained by trypsinization and seeded at 10,000 cells/well in cell culture microplates (Seahorse Bioscience, 101085-004) and allowed to adhere for 48 hours in culture media. […]
Determining the optimized cell density and concentrations for stress test, such as FCCP, were achieved through methods well known to those of skill in the art. After baseline measurements of OCR, cells were challenged with compounds of the present disclosure at different concentrations (10 to 50 μM) or vehicle (DMSO, 0.1%) and a post-compound baseline was recorded. OCR was measured after sequentially adding to each well 1.5 μg/ml oligomycin (inhibitor of ATP synthase Sigma-Aldrich, 753531), then maximal OCR was determined with carbonyl cyanide 4-(trifluoromethoxy) phenylhydrazone (FCCP, Sigma-Aldrich, C2920), (uncoupler of oxidative phosphorylation) and 1.0 μM of rotenone (Sigma-Aldrich, R8875) plus antimycin A (Sigma-Aldrich, A8674) (inhibitors of mitochondrial complex I and III) for determination of rotenone-antimycin insensitive respiration together with Hoechst for nuclear staining in situ when normalized to cell counts. After the analysis and nuclear staining, the XFp microplate was transferred to the Cytation 5, and the nuclear images were captured, the individual nuclei were identified and counted by BioTek Gen5 software. […]

HepG2 cells = assay: Glucose uptake (Glucose Uptake-Glo assay); conditions: 10 μM compound; insulin control 100 nM
Procedure: The effect of compounds from the present disclosure on glucose uptake was determined in HepG2 cells (ATCC, HB-8065) using the glucose uptake Glo Assay Kit (Promega, J1343 according to manufacturer instructions. HepG2 cells were cultured in complete DMEM-glucose media (Gibco) supplemented with 10% FBS (37° C. incubator with 5% CO2) and seeded in 96-well plates at 30,000 cells/well. After removing the complete media, 100 μL/well of serum-free, high-glucose DMEM media were added to the wells and incubated overnight (37° C. incubator with 5% CO2). Media was then replaced with 100 μL/well DPBS containing 0.6% BSA and starved for 1 hour. Next, DPBS was removed and 45 μl/well of insulin (100 nM) or compounds (10 μM-50 μM) were added to the wells and incubated for 10 minutes (37° C. incubator with 5% CO2). Insulin and compounds were prepared in DPBS with 0.6% BSA with a final DMSO concentration of 0.1%. Next, 5 μL of 2DG (10 mM) in DPBS were added per well and allowed to incubate for 20 minutes followed by addition of 25 μL stop buffer. 37.5 μL of the mixture were then transferred to a new plate and 12.5 μL of Neutralization buffer added to the wells. After, 50 μL of 2DG6P detection Reagent were added and incubated for 0.5-1 hour at room temperature. Luminescence was measured with 0.3-1 second integration on a luminometer. […]

[2] = tested on: MMA Patient fibroblasts (GM01673, Coriell Institute for Medical Research); assay: Mitochondrial fusion and networking (high-content imaging); set-up: key: Mitochondrial elongation and networking was described as slight, mild or good; Mitochondrial elongation and networking was described as slight, mild or good; Mitochondrial elongation and networking was described as slight, mild or good; conditions: 10 μM compound, 2 hours, compared to vehicle control
Procedure: Cells were seeded in 96-well plates (density 3000 cells/well) in culture minimum MEM (GIBCO, 10370-021) supplemented with 2 mM L-Glutamine (Thermo Fisher Scientific), 15% FBS (Thermo Fisher Scientific 26400044) and 1% penicillin/streptomycin. Cells were incubated for 48 hours (37° C, 5% CO2), then treated with 10 μM compounds from the present disclosure, 1% DMSO (vehicle) or 5 μM FCCP (control) for 2 hours in fasted conditional medium: Agilent XF DMEM (Agilent 103575-100), pH 7.4 supplemented with 10% FBS (Thermo Fisher Scientific 26400044), 0.03% penicillin/streptomycin 1 mM glucose, 2 mM L-glutamine and 1 mM pyruvate.
After treatment, media was removed, and cells were stained with 100 μl of 1×mixture dye solution of 1 μg/mL JC-1 (Invitrogen Cat #T3168) and 50 ng/ml MitoTracker deep red (Invitrogen Cat #M22426) at 37° C. for 30 minutes. Next, staining was removed, the cells were washed once with 150 μl PBS, and 150 μl of fasted conditional medium (described above) is added to each well. Analysis was carried out on live cells using a Thermo Scientific CellInsight CX7 LZR High-Content Screening Platform. Mitochondrial elongation and networking was described as slight, mild or good.

Compound: CC(C)(CO)[C@H]1OC(=O)CCC(=O)SCCNC(=O)CCNC1=O [Compound 61, (R)-2-(1-hydroxy-2-methylpropan-2-yl)-1-oxa-11-thia-4,8-diazacyclopentadecane-3,7,12,15-tetraone]
- increase of Spare Capacity AUC [1]: > 20%
- stimulation of Glucose Uptake, % of insulin control (HepG2 cells): at least 15%
- mitochondrial elongation and networking [2]: slight
